The structures appear in SMILES notation. Converted amounts (≈) assume the structure as drawn. Bounds are passed on as bounds.

The test system of this assay is MCF7. Put plainly: Cytotoxicity against human MCF7 cells after 72 hrs by sulforhodamine B assay. The format is functional, cell-based. As to conditions: MCF7, 72 h. For orientation: The SRB assay estimates cell density from bound dye.
For `COC(=O)[C@@]1(CC=C(C)C)OC(C)(C)[C@@H]2CC(=O)C=C3C(=O)c4c(O)cccc4O[C@]321` (racemic), the IC50 is over 5 µg/mL. Next, `CC[C@@]1(O)C(=O)OCc2c1cc1n(c2=O)Cc2cc3ccccc3nc2-1` [CAMPTOTHECIN]: under 0.024 µg/mL; `CO[C@]12C=C3C(=O)c4c(O)cccc4O[C@@]34[C@@H](C1)C(C)(C)O[C@]4(CC=C(C)C)C2=O` (racemic): 0.36 µg/mL (≈ 0.877 µM); `CO[C@]12C=C3C(=O)c4c(O)cccc4O[C@@]34C[C@@H]1C(C)(C)O[C@]2(CC=C(C)C)C4=O` (racemic): over 5 µg/mL.

One may read the IC50 as the concentration at which inhibition is half-maximal. Read a low IC50 as higher potency.

(Values after ChEMBL document CHEMBL3352309, “Three types of cytotoxic natural caged-scaffolds: pure enantiomers or partial racemates” (J Nat Prod, 2014).)
